From BindingDB's records for doi:10.1016/j.ejmech.2019.111668 (Yantai University, 2019)

Assays:
[1] = Reversal of P-gp-mediated multidrug resistance in human KBV cells assessed as potentiation of irinotecan-induced cytotoxicity by measuring irinotecan IC50 at 5 uM after 72 hrs by MTT assay (Rvb = 49.2 +/- 0.46 nM)
[2] = Reversal of P-gp-mediated multidrug resistance in human KBV cells assessed as potentiation of irinotecan-induced cytotoxicity by measuring irinotecan IC50 at 10 uM after 72 hrs by MTT assay (Rvb = 49.2 +/- 0.46 nM)
[3] = Reversal of P-gp-mediated multidrug resistance in human KBV cells assessed as potentiation of paclitaxel-induced cytotoxicity by measuring paclitaxel IC50 at 5 uM after 72 hrs by MTT assay (Rvb = 352.31 +/- 10.9 nM)
[4] = Reversal of P-gp-mediated multidrug resistance in human KBV cells assessed as potentiation of vincristine-induced cytotoxicity by measuring vincristine IC50 at 5 uM after 72 hrs by MTT assay (Rvb = 2.92 +/- 0.31 nM)
[5] = Reversal of P-gp-mediated multidrug resistance in human KBV cells assessed as potentiation of paclitaxel-induced cytotoxicity by measuring paclitaxel IC50 at 10 uM after 72 hrs by MTT assay (Rvb = 352.31 +/- 10.9 nM)
[6] = Reversal of P-gp-mediated multidrug resistance in human KBV cells assessed as potentiation of vincristine-induced cytotoxicity by measuring vincristine IC50 at 10 uM after 72 hrs by MTT assay (Rvb = 2.92 +/- 0.31 nM)

CC(=O)O[C@H]1C[C@@]2(C)[C@@H](C[C@@H](O)[C@H]3[C@@]4(C)CC[C@@H](O)[C@@H](C)[C@@H]4CC[C@@]32C)/C1=C(\CCC=C(C)C)C(=O)OCc1ccccc1
IC50 [1]: 37200 nM
IC50 [2]: 16200 nM
IC50 [3]: 17 nM
IC50 [4]: 144 nM
IC50 [5]: 7 nM
IC50 [6]: 92 nM
